Data as given in patent US11572590B2, “Methods for evaluating tumor cell spheroids using 3D microfluidic cell culture device” (Dana-Farber Cancer Institute, Inc., priority 2017, dated 2023).
Where two headings read alike, the source gives them in different places.

Target: T1, IKKε (IKBKE) (Homo sapiens, UniProt Q14164)
T1 sequence (Q14164 1-716): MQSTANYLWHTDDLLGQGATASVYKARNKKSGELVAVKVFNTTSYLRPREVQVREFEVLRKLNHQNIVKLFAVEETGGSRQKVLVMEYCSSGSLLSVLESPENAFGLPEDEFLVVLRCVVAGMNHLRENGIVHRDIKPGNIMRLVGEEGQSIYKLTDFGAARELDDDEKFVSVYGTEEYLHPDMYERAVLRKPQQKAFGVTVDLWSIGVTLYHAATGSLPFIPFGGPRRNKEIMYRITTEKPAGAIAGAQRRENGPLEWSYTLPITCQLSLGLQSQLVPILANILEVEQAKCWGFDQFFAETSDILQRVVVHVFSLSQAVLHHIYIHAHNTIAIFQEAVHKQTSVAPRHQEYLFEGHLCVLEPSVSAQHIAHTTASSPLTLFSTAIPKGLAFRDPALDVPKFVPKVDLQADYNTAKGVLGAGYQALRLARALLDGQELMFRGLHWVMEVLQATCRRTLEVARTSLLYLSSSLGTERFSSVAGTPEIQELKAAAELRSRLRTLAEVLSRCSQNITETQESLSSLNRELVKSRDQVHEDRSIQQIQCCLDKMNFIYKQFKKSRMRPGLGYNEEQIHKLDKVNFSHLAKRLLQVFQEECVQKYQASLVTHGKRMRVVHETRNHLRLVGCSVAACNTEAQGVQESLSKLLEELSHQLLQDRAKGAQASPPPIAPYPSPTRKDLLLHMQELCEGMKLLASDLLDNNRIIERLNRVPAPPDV
Assay: SelectScreen Kinase Profiling, IC50 for IKKε (IKBKE)
Format: biochemical
Details: ATP Km app, ZLYTE; for inhibition: IKBKE (IKK epsilon)
Description: Biochemical single point inhibition and IC50 concentrations for TBK1, IKKε (IKBKE), and off-target kinases were determined at ThermoFisher Scientific using SelectScreen Kinase Profiling Services (Madison, Wis., USA) (Tables S4A and S4B-1-7). To determine cellular potency, the human colorectal cancer carcinoma cell line HCT116 (ATCC, Manassas, Va.) was maintained in T175 flasks in complete RPMI medium; RPMI 1640 supplemented with 10% FBS, 1× Penicillin-Streptomycin solution and 1×MEM (non-essential amino acids). HCT116 cells were grown to 90-95% confluency in T175 flasks containing complete RPMI medium and transfected in bulk using Lipofectamine 2000 (Invitrogen, Carlsbad, Calif.) with 70 μg of ISG54-luciferase reporter plasmid (Elim Biopharmaceuticals Inc., Hayward, Calif.). The reporter plasmid contains a luciferase gene expression cassette under the transcriptional regulation of the promoter of the human interferon stimulated gene 54 (ISG54). Transfection of the cells was allowed to take place for 6 hours, after which the cells were harvested by treatment with 0.25% trypsin EDTA (Corning Inc., Corning, N.Y.). Trypsinized cells were added to 384-well poly-d-lysine treated black clear bottom tissue culture assay plates (Greiner Bio-One GmbH, Kremsmünster, Austria) at a density of 20,000 cells/well in 80 μL of complete RPMI medium and incubated overnight. After 16-18 hours post-transfection, the assay plates were washed with PBS (Corning Inc., Corning, N.Y.), followed by addition of 80 μL/well of serum-free RPMI 1640 medium containing 1× Penicillin-Streptomycin solution, 1×MEM and 350 nL of DMSO or titrations of Compound 1. Compound 1 titrations were generated by 1.5-fold dilution steps in two overlapping serial dilution series to generate a 40-point compound dose range. After incubation at 37° C. for 1 hour, the cells were stimulated with Poly(I:C) (InvivoGen, San Diego, Calif.) at a final concentration of 15 μg/mL in Optimem media (Life Technologies, Rockville, Md.). The assay plates were incubated for 5 hours at 37° C., followed by addition of One-Glo luciferase firefly reagent (Promega, Madison, Wis.) at 1:1 volume/well and luminescence was measured in an EnVision Multilabel Plate Reader (PerkinElmer, Santa Clara, Calif.). The EC50 values were calculated from the fit of the dose-response curves to a four-parameter equation. All EC50 values represent geometric mean values of a minimum of four determinations.

N#Cc1cc(-c2ncnc(Nc3ccc(N4CCN(C5COC5)CC4)cc3)n2)ccc1OC1CCOCC1 [Compound 1, 5-(4-((4-(4-(oxetan-3-yl)piperazin-1-yl)phenyl)amino)-1,3,5-triazin-2-yl)-2-((tetrahydro-2H-pyran-4-yl)oxy)benzonitrile] was tested. Which inhibition (read-out: % Inhibition 1) did it give?
Its inhibition is 106%.

What about the inhibition (read-out: % Inhibition 2) of the same compound?
Its inhibition is 103%.

And the inhibition (read-out: % Inhibition Avg)?
Its inhibition is 105%.

And the Hillslope?
The Hillslope was 1.06.

What about the IC50 of the same compound?
Its IC50 is 5.59 nM.

And the “fold selectivity (IKBKE)” value (IC50 relative to IKBKE IC50)?
Its value is 1.0 fold.

And the “fold selectivity (TBK1)” value (IC50 relative to TBK1 IC50)?
Its value is 5.4 fold.
